Reference: US12157713B2, “Conjugated oligoelectrolytes as antimicrobial agents” (Nanyang Technological University, priority 2018, dated 2024)

What was measured:
[1] = test system: Enterococcus faecalis OG1RF; assay: MIC by broth microdilution against E. faecalis OG1RF; assay type: cell-based; conditions: BHI
Experimental: The respective minimum inhibition concentration (MIC) of each COE molecule was determined using a broth microdilution method. Briefly, COEs were diluted via a 2-fold dilution series in 100 μL of either Muller Hinton Broth (MHB) for E. coli and S. aureus or Brain Heart Infusion Broth (BHI) for E. faecalis in a 96-well plate to achieve the desired final concentration. Subsequently, each well was inoculated with 100 μL of 1×10^6 colony forming units (CFU) mL^−1 of the respective microorganism in MHB for E. coli or BHI for E. faecalis to achieve an inoculum density of 5×10^5 CFU mL^−1. The plates were then incubated at 37° C. with shaking (200 rpm) for 18 hrs. […] The results were obtained in triplicate.
The MIC values of COE-D4, COE-D6 and COE-D8 against the reference strain E. coli K12, pathogenic E. coli UT189, and the Gram positive pathogen Enterococcus faecalis OG1RF were determined using a broth microdilution method as described in the general method above. The MICs for E. coli K12 were determined to be 128, 16, and 4 μg mL^−1 for COE-D4, COE-D6, and COE-D8, respectively (FIG. 5a). […] This is not surprising as these two organisms differ in the capsular polysaccharides that they expressed, which are known to hinder the uptake of antimicrobials and mitigate their potency (M. A. Campos, et al., Infect. Immun. 2004, 72, 7107-7114). […]

[2] = Intrinsic hepatic clearance in mice; assay type: in vitro ADME
[3] = test system: human erythrocytes; assay: Haemolysis assay; assay type: cell-based
Experimental: 1 mL of mammalian blood, collected from a healthy donor, was mixed with 9 mL of PBS and centrifuged at 1,000 rpm for 5 min. Red blood cell pellet was collected and subsequently washed with PBS three times and diluted to a final concentration of 5% v/v. The various COEs were dissolved in PBS and two folds serial diluted in a 96-well microplate. 50 μL of red blood cell stock was mixed with 50 μL of COE solution in each well and incubated for 1 hr at 37° C. under shaking. The microplate was centrifuged at 1,000 rpm for 10 min. 80 μL aliquots of the supernatant were then transferred to a new 96-well microplate and diluted with another 80 μL of PBS. Haemolytic activity was calculated by measuring absorbance at 540 nm using a 96-well plate spectrophotometer. Triton X-100 (0.1% in PBS), which is able to lyse red blood cells, completely was used as positive control, while PBS was used as negative control. The haemolysis percentage was calculated using the following formula:
[formula] where Op is the absorbance of the COE-treated sample, Ob is the absorbance of negative control and Ot is the absorbance of positive control. Results and Discussions
The selectivity of COEs towards bacteria or mammalian cells can be quantified using the ratio between the concentrations leading to 50% lysis of human erythrocytes (HC50) and the MIC value.

## C[N+](C)(C)CCCCCCCCOc1ccc(/C=C/c2ccc(OCCCCCCCC[N+](C)(C)C)cc2)cc1 [COE-D8]
[1]
  MIC: 4 µg/mL

## CN(C)CC[N+](C)(C)CCCCCCOc1ccc(/C=C/c2ccc(OCCCCCC[N+](C)(C)CCN(C)C)cc2)cc1 [COE-D62N]
[2]
  intrinsic hepatic clearance in mice: good
[3]
  Toxicity towards erythrocytes: non-toxic
